The values below come from publication PMC11487561 (ACS Chemical Neuroscience, 2024).

For orientation: MRT means the average time that molecules of a dose stay in the body. The term half-life denotes how long it takes for the measured level to halve. High values mean slow loss, low ones fast loss. What is called AUC(0-inf) is total exposure, with the tail of the curve extrapolated. What is called Cmax is the maximum level reached in the sampled fluid or tissue. As usually defined, the Tmax is the time from dosing to the highest level. What is called bioavailability is the share of a dose that reaches the circulation, judged against a reference dose that is usually intravenous. A high value points to much systemic uptake. A word on the IC50: it is the concentration at which inhibition is half-maximal. Lower therefore signals greater potency.

Molecules are shown by their SMILES.

One series is described as follows: In vivo rat iv/po PK. Conditions: male, Sprague-Dawley, plasma, rat (SD); for bioavailability: rat, po. The protocol: Intravenous pharmacokinetics and plasma-brain level determination (IV PK PBL) VU6016235 […]
Dawley rats (n = 1; 342 gram body weights) via injection into a surgically-implanted jugular vein catheter. […] Blood samples were collected serially from a surgically implanted carotid artery catheter in each animal over multiple post-administration time points (0.033, 0.117, 0.25, 0.5, 1, 2, 4, 7, and 24 hours) into chilled, K2EDTA anticoagulant-fortified tubes and immediately placed on wet ice. […]
For PO PK studies, VU6016235 was formulated in 10% Tween 80 in water and administered orally as a single dose of 10 mg/kg to male Sprague Dawley rats (10 ml/kg, n=2) that were fasted overnight. […]
anticoagulant-fortified tubes and immediately placed on wet ice. The blood samples were then centrifuged (1700 rcf, 5 minutes, 4 °C) in order to obtain plasma samples, which were stored at -80 °C until analysis […]
Samples preparation for bioanalysis
Plasma samples from the in-life phase of the study were thawed at ambient temperature (benchtop), and then aliquots (20 µL per sample) were transferred to a 96-shallow-well (V-bottom) plate. Matrix-matched quality control (QC) samples and a standard curve of […] (1 mg/mL DMSO stock solution) were prepared in blank rat plasma (K2EDTA-treated) or blank brain homogenate via serial dilution and transferred (20 µL each) to the plate along with multiple blank plasma and brain homogenate samples. Acetonitrile (120 µL) containing IS (10 nM carbamazepine) was added to each well of the plate to precipitate protein. The plate was then centrifuged (4000 rcf, 5 minutes, ambient temperature), and resulting supernatants (60 µL each) were transferred to a new 96-shallow-well (V-bottom) plate containing an equal volume (60 µL per well) of water (Milli-Q purified). […]
The plasma standard curve and QCs were used for compounds quantitation in brain.
Binding in plasma from rat and human.
Determination of compounds’ fraction unbound (f u) in plasma from rat and human was conducted in vitro via equilibrium dialysis using HTDialysis membrane plates. Dialysis membranes (four paired strips per HTD assay) were hydrated as described by the manufacturer and inserted into the HTD plate, which was assembled and prepared for sample addition by the dispensing of blank buffer (DPBS, 100 µL/well) into the ‘top half’ of each membrane-split well. Each compound was diluted into plasma from each species (5 µM final concentration), which was aliquoted in triplicate to the ‘bottom half’ of the prepared HTD plate wells. The HTD plate was sealed and incubated for 6 hours at 37 °C. Following incubation, each well (both top and bottom halves) were transferred (20 µL) to the corresponding wells of a 96-shallow-well (V-bottom) plate. The daughter plates were then matrix-matched (buffer side wells received equal volume of plasma, and plasma side wells received equal volume of buffer), and extraction solution (120 µL; acetonitrile containing 50 nM carbamazepine as IS) was added to all wells of both daughter plates to precipitate protein and extract test article. The plates were then sealed and centrifuged (3500 rcf) for 10 minutes at ambient temperature. Supernatant (60 µL) from each well of the daughter plates was then transferred to the corresponding wells of new daughter plates (96-shallow-well, V bottom) containing water (Milli-Q, 60 µL/well), and the plates were sealed in preparation for LC-MS/MS analysis (see below). fu was calculated as (analyte to IS MS peak area ratio from Trans-buffer side) / (analyte to IS MS peak area ratio from Cis-plasma side). Mean values for each species were calculated from 3 replicates.

For series [1], the system named is amphetamine-induced hyperlocomotion in rats. In words: Rat amphetamine-induced hyperlocomotion (AHL). The series is classed as in vivo. Conditions: for mean reversal of AHL: listed as VU6016235. The protocol: Rat Amphetamine-Induced Hyperlocomotion (AHL) Protocol
Male Harlan Sprague Dawley rats with a mean body weight of 240 g (range 221-264 g) were tested in SmartFrame Open Field locomotor activity test chambers to automatically record locomotor activity. All rats were habituated in locomotor activity enclosures for 30 min, followed by pretreatment by oral gavage for an additional 30 min with either vehicle or a dose of VU6016235 or the comparator M 4 PAM VU0467154. Next, rats were injected subcutaneously with vehicle or a dose of 0.75 mg/kg amphetamine and then monitored for an additional 60 min. Changes in locomotor activity were recorded for a total of 120 min. Locomotor data were expressed as the number of photobeam breaks/5 min intervals across the 120-min test session or as the total ambulation, calculated as sum of photobeam beam breaks from the time of amphetamine administration (60 min) until the end of the study (120 min). Time course data were analyzed by two-way ANOVA with main effects of treatment and time; changes in total ambulation were analyzed by one-way ANOVA followed by Dunnett’s post hoc test (GraphPad Prism 7 [GraphPad Software, San Diego, CA]). For all tests, α ≤ 0.05 was considered to represent statistical significance.
Finally, percent reversal data were calculated in Microsoft Excel using the following formula: Percent Reversal = 100 - {[(total ambulation in individual animal from t = 60 to t = 120) / (mean total ambulation […]
from t=60 to t=120 in the VAMP group)] * 100}. Mean percent reversal ± S.E.M. was calculated for each dose group using GraphPad Prism 7.
At the end of this behavioral study, each rat was euthanized, then decapitated, and the plasma and brain tissues were collected for the evaluation of exposure levels of VU6016235-05 or VU0467154-9A by pharmacokinetic analysis. […]

The target in series [2] is Transporter, Norepinephrine (NET) (Homo sapiens, UniProt P23975). The experiment in a line: Lead Profiling Screen – Eurofins Panlabs. The series is classed as binding. As to conditions: read-out: % inh at 10 μM.
Sequence of Transporter, Norepinephrine (NET) (P23975 whole entry): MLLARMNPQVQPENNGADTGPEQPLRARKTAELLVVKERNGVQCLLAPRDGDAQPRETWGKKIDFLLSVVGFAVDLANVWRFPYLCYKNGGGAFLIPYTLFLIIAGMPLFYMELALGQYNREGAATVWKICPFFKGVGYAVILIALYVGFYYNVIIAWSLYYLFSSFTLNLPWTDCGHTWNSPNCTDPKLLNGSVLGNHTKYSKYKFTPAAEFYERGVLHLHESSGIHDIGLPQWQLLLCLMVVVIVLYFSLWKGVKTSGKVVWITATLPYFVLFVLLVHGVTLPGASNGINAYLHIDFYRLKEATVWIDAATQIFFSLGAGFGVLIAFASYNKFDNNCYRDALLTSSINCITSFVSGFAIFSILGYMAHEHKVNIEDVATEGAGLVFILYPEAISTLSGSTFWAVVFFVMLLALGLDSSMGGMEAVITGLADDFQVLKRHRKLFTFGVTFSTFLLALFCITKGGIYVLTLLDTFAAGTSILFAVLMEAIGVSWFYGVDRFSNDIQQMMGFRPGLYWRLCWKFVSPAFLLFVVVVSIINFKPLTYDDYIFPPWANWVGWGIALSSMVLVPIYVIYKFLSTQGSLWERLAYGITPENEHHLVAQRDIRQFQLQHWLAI
For a further series, the target named is T1, CYP 3A4 (Homo sapiens, UniProt P08684).
T1 construct: from tissue; host or cells: pooled human liver microsomes (according to the earlier reading)
T1 sequence (P08684 whole entry): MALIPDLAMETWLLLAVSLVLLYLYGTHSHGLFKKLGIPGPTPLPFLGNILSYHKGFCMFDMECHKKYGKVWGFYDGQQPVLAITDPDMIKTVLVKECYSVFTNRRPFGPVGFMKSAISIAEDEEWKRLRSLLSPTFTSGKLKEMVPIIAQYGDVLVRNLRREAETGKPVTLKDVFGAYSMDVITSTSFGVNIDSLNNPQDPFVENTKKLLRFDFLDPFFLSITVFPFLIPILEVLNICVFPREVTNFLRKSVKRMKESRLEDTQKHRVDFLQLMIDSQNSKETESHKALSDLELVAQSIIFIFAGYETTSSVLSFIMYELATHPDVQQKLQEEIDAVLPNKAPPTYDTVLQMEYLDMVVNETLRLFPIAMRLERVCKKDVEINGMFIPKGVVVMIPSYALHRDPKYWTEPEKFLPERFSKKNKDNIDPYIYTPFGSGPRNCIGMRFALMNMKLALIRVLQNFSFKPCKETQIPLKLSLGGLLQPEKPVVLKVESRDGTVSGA
The experiment in a line: P450 inhibition in pooled human liver microsomes. The format is in vitro ADME. As to conditions: pooled HLM, NADPH, CYP-specific probe substrates. On the technique in general: Liver microsomes are vesicles of endoplasmic reticulum, rich in cytochrome P450 enzymes.

Another series addresses T2, Bradykinin B1 (Homo sapiens, UniProt P46663).
T2 construct: Eurofins Panlabs (contract screen)
In words: Lead Profiling Screen – Eurofins Panlabs. The series is classed as binding. As to conditions: read-out: % inh at 10 μM.

In a further series the target is human M3 (Homo sapiens, UniProt P20309). The experiment in a line: Calcium mobilization assay, muscarinic selectivity. The series is classed as cell-based. (In general: A change in cytosolic calcium serves as a functional read-out for many receptors and channels.)
Sequence of human M3 (P20309 whole entry): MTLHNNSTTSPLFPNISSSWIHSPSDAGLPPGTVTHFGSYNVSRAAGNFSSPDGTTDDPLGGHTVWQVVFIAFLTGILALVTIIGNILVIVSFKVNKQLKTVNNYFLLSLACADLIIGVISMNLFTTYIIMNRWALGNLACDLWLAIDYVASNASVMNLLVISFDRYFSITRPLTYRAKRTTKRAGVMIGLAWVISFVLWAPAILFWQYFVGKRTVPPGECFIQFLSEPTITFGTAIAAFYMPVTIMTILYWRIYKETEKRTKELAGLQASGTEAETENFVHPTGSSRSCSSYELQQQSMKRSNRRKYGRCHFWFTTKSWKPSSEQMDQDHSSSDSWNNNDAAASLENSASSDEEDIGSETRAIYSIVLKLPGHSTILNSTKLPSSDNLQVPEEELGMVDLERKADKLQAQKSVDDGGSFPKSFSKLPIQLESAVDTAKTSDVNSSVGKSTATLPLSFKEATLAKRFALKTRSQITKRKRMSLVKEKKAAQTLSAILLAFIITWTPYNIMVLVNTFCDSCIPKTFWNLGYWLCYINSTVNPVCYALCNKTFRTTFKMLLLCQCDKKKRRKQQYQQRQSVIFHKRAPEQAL
The target in a further series is T3, Endothelin ETA (Homo sapiens, UniProt P25101).
T3 construct: Eurofins Panlabs (contract screen)
T3 sequence (P25101 21-427): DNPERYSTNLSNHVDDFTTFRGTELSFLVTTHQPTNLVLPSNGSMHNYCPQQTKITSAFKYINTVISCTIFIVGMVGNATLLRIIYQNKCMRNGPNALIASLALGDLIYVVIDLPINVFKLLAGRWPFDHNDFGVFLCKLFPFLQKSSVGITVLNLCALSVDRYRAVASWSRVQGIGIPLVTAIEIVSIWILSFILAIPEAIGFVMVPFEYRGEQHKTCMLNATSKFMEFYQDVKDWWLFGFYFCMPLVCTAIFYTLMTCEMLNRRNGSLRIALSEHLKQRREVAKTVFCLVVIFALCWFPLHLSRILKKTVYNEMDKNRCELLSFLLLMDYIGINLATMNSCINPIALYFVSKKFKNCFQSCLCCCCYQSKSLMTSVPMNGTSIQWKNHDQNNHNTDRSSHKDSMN
In words: Lead Profiling Screen – Eurofins Panlabs. The format is binding. Conditions: read-out: % inh at 10 μM.

For the next series, the target named is Opiate δ1 (OP1, DOP) (Homo sapiens, UniProt P41143). In words: Lead Profiling Screen – Eurofins Panlabs. The format is binding. As to conditions: read-out: % inh at 10 μM.
Sequence of Opiate δ1 (OP1, DOP) (P41143 whole entry): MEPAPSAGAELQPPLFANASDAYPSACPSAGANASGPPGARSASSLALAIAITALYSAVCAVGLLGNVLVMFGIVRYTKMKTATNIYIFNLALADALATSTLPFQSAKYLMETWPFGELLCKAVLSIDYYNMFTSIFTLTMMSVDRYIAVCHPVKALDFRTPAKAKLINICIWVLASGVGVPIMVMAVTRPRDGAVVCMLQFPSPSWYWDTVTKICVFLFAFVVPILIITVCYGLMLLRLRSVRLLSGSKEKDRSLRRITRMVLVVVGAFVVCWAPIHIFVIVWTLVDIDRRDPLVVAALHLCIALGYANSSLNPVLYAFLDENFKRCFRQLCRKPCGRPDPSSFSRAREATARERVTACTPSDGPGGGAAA
The target in another series is Opiate μ (OP3, MOP) (Homo sapiens, UniProt P35372). In words: Lead Profiling Screen – Eurofins Panlabs. The format is binding. Conditions: read-out: % inh at 10 μM.
Sequence of Opiate μ (OP3, MOP) (P35372 whole entry): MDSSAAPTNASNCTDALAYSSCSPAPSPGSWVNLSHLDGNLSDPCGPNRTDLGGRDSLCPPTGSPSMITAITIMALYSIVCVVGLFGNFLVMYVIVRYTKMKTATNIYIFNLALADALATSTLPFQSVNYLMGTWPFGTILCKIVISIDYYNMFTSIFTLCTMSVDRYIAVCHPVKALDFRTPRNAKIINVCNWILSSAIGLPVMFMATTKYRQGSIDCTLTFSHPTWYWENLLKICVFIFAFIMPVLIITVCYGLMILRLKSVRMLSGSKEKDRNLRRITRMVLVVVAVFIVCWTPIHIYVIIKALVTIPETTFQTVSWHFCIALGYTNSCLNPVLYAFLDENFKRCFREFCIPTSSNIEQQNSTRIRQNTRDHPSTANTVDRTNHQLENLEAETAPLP

T2 sequence (P46663 whole entry): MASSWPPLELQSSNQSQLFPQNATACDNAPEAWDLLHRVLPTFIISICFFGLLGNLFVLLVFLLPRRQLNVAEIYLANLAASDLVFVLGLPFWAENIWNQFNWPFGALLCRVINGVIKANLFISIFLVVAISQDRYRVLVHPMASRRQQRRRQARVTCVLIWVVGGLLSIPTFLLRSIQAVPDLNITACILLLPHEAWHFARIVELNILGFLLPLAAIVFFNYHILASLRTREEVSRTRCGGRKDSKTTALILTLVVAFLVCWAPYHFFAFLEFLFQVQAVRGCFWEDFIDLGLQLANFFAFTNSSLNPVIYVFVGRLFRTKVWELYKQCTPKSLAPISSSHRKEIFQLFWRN

Turning to `Cc1nc(C)c2c(n1)sc1c(NCc3ccc(C(C)(C)O)cc3)nccc12` [22g], the MRT in the series “In vivo rat iv/po PK” (iv 1.0 mg/kg) turned out to be 4.3 h. In addition, in the series “In vivo rat iv/po PK” (iv 1.0 mg/kg), the half-life is 204 min. Moreover, the clearance in “In vivo rat iv/po PK” (iv 1.0 mg/kg, read-out: CLp) amounted to 4.9 mL/min/kg. Moreover, the Vd in “In vivo rat iv/po PK” (iv 1.0 mg/kg, read-out: Vss) was found to be 1.3 L/kg. The AUC(0-inf) came to 8410 ng·h/mL in “In vivo rat iv/po PK” (po 3.0 mg/kg) and 59200 ng·h/mL in the series “In vivo rat iv/po PK” (po 30.0 mg/kg). For the same compound, the maximum concentration (Cmax) in “In vivo rat iv/po PK” (po 3.0 mg/kg) is 657 ng/mL; in the series “In vivo rat iv/po PK” (po 30.0 mg/kg), 4460 ng/mL. Moreover, the Tmax in the series “In vivo rat iv/po PK” (po 3.0 mg/kg) is 3 h; in the series “In vivo rat iv/po PK” (po 30.0 mg/kg), 5 h. Moreover, the bioavailability in the series “In vivo rat iv/po PK” (3 mg/kg, po 3.0 mg/kg) was ≥ 100%; in the series “In vivo rat iv/po PK” (30 mg/kg, po 30.0 mg/kg) it was 84%. Moreover, in series [1] (0.56 mg/kg p.o. + amphetamine 0.75 mg/kg s.c.), the “mean % reversal of AHL” value was determined as 12.8 ± 3.9%. Besides, the “mean reversal of AHL” value was determined as 41.4% in series [1] (3 mg/kg p.o. + amphetamine 0.75 mg/kg s.c.) and 54.2% in series [1] (10 mg/kg p.o. + amphetamine 0.75 mg/kg s.c.). Besides, the “MED, reversal of AHL” value in series [1] (oral administration) turned out to be 1 mg/kg. Moreover, the inhibition at 10 µM in series [2] is 26%; on Bradykinin B1, -1%; on Endothelin ETA it was -2%; on Opiate δ1 (OP1, DOP) it was -2%; on Opiate μ (OP3, MOP), 7%. On CYP 3A4, this compound had an IC50 of 17 µM. The “human M3 %Ach Max” value on human M3 is “inactive”. For the same compound, the “human M3 EC50” value on human M3 is “inactive”.
